Measured values from article PMC6934184, “Selective DNA-PKcs inhibition extends the therapeutic index of localized radiotherapy and chemotherapy” (The Journal of Clinical Investigation, 2019).

Molecular target: T1, PDGFRA (PDGFR alpha) (Homo sapiens, UniProt P16234)
T1 construct: purchased Thermo Fisher Scientific (Life Technologies) SelectScreen
Assay: SelectScreen Z'LYTE
Type: biochemical
Method in brief: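 NU5455 was profiled across the SelectScreen Broad panel of kinase activity and binding assays. Z'LYTE reactions such as CSF1R ran at apparent Km ATP, while the Adapta CAMK1 assay used ATP listed as 10. Values are given as percent.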

T1 sequence (P16234 24-1089): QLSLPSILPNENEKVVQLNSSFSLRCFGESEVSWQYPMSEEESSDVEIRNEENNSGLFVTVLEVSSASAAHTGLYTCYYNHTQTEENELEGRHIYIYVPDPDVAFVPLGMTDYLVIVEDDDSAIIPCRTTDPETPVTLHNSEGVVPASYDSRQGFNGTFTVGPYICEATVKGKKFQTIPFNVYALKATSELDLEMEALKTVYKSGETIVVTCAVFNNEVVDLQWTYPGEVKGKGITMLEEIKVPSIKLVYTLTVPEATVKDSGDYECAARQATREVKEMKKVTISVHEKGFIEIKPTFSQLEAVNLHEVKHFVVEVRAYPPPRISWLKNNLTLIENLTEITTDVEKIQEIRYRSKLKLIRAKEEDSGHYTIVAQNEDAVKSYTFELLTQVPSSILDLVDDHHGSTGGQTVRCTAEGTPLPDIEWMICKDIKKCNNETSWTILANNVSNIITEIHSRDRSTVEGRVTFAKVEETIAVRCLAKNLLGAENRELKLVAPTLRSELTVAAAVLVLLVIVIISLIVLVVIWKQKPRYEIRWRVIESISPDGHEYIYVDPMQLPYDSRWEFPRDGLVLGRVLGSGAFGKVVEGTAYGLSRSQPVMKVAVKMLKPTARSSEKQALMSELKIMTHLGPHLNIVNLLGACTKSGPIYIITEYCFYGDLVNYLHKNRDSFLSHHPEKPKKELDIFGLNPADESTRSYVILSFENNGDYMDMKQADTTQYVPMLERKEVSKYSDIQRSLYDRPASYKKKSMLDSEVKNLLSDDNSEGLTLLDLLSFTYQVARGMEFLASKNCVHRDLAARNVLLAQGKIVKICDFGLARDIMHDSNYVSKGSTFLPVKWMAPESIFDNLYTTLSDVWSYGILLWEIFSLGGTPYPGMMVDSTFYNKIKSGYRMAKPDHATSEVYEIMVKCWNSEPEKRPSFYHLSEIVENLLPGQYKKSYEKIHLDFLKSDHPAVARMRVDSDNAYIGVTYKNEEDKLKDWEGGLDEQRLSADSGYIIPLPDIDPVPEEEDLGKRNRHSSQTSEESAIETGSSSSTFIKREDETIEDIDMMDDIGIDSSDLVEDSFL

For `CN(C(=O)CN1CCOCC1)c1ccc2sc3c(-c4cccc5c(=O)cc(N6CC7CCC(C6)O7)oc45)cccc3c2c1` [NU5455], the inhibition at 1 µM was -6.8%.
